Legend:
[1] = tested on: recombinant NL4-3 virus (nef section replaced with Renilla luciferase gene) in MT-2 cells; assay: HIV cell culture assay (antiviral activity, luciferase readout); type: cell-based; conditions: Renilla, NL43, MT-2 cells infected for 4-5 days with recombinant NL4-3 Renilla luciferase virus, serial dilutions of compound
In short: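 Test compound in serial dilution was present while MT-2 cells were infected for 4–5 days with recombinant NL4-3 virus made in 293T cells. Antiviral activity was quantified as Renilla luciferase activity, read with a live-cell substrate. EC50 came from the median-effect equation.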

[2] = Compound cytotoxicity, XTT-based colorimetric assay; type: cell-based; conditions: human, uninfected MT2 cells, day 4, XTT
In short: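 Run under the antiviral-assay protocol but without virus. Viability was read on day 4 and CC50 values were derived from the readout.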

| Structure (SMILES) | EC50 [1] [nM] | CC50 at 4 day [2] [nM] |
| --- | --- | --- |
| Cc1cccc(C)c1-c1ccc2c(=O)n(-c3ccc(S(=O)(=O)N4CCOCC4)cc3)c([C@H](Cc3cc(F)cc(F)c3)NC(=O)Cn3ccc(C4CC4)n3)nc2c1 [Example 49, (S)-2-(3-cyclopropyl-1H-pyrazol-1-yl)-N-(2-(3,5-difluorophenyl)-1-(7-(2,6-dimethylphenyl)-3-(4-(morpholinosulfonyl)phenyl)-4-oxo-3,4-dihydroquinazolin-2-yl)ethyl)acetamide] | 30 | > 1000 |
| Cc1cc(Cl)ccc1-c1ccc2c(=O)n(-c3ccc(S(=O)(=O)N4CCOCC4)cc3)c([C@H](Cc3cc(F)cc(F)c3)NC(=O)Cn3ccc(C4CC4)n3)nc2c1 [Example 50, (S)-N-(1-(7-(4-chloro-2-methylphenyl)-3-(4-(morpholinosulfonyl)phenyl)-4-oxo-3,4-dihydroquinazolin-2-yl)-2-(3,5-difluorophenyl)ethyl)-2-(3-cyclopropyl-1H-pyrazol-1-yl)acetamide] | 70 | > 1000 |
| COc1cccc(-c2ccc3c(=O)n(-c4ccc(S(=O)(=O)N5CCOCC5)cc4)c([C@H](Cc4cc(F)cc(F)c4)NC(=O)Cn4ccc(C5CC5)n4)nc3c2)n1 [Example 55, (S)-2-(3-cyclopropyl-1H-pyrazol-1-yl)-N-(2-(3,5-difluorophenyl)-1-(7-(6-methoxypyridin-2-yl)-3-(4-(morpholinosulfonyl)phenyl)-4-oxo-3,4-dihydroquinazolin-2-yl)ethyl)acetamide] | 8.7 | > 1000 |
| O=C(Cn1nc(C(F)F)c2c1C(F)(F)[C@@H]1C[C@H]21)N[C@@H](Cc1cc(F)cc(F)c1)c1nc2cc(-c3ccncc3)ccc2c(=O)n1-c1ccc(S(=O)(=O)N2CCOCC2)cc1 [Example 69, 2-((3bS,4aR)-3-(difluoromethyl)-5,5-difluoro-3b,4,4a,5-tetrahydro-1H-cyclopropa[3,4]cyclopenta[1,2-c]pyrazol-1-yl)-N-((S)-2-(3,5-difluorophenyl)-1-(3-(4-(morpholinosulfonyl)phenyl)-4-oxo-7-(pyridin-4-yl)-3,4-dihydroquinazolin-2-yl)ethyl)acetamide] | 1 | > 1000 |
| O=C(Cn1ccc(C2CC2)n1)N[C@@H](Cc1cc(F)cc(F)c1)c1nc2cc(-c3cccc(F)c3F)ccc2c(=O)n1-c1ccc(S(=O)(=O)N2CCOCC2)cc1 [Example 74, (S)-2-(3-cyclopropyl-1H-pyrazol-1-yl)-N-(2-(3,5-difluorophenyl)-1-(7-(2,3-difluorophenyl)-3-(4-(morpholinosulfonyl)phenyl)-4-oxo-3,4-dihydroquinazolin-2-yl)ethyl)acetamide] | 16 | > 1000 |
| Cc1cccc(C)c1-c1ccc2c(=O)n(-c3ccc(S(=O)(=O)N4CCOCC4)cc3)c([C@H](Cc3cc(F)cc(F)c3)NC(=O)Cn3nc(C(F)F)c4c3C(F)(F)[C@@H]3C[C@H]43)nc2c1 [Example 77, 2-((3bS,4aR)-3-(difluoromethyl)-5,5-difluoro-3b,4,4a,5-tetrahydro-1H-cyclopropa[3,4]cyclopenta[1,2-c]pyrazol-1-yl)-N-((S)-2-(3,5-difluorophenyl)-1-(7-(2,6-dimethylphenyl)-3-(4-(morpholinosulfonyl)phenyl)-4-oxo-3,4-dihydroquinazolin-2-yl)ethyl)acetamide] | 4.2 | > 1000 |
| O=C(Cn1nc(C(F)F)c2c1C(F)(F)[C@@H]1C[C@H]21)N[C@@H](Cc1cc(F)cc(F)c1)c1nc2cc(-c3ccc(Cl)cc3Cl)ccc2c(=O)n1-c1ccc(S(=O)(=O)N2CCOCC2)cc1 [Example 80, N-((S)-1-(7-(2,4-dichlorophenyl)-3-(4-(morpholinosulfonyl)phenyl)-4-oxo-3,4-dihydroquinazolin-2-yl)-2-(3,5-difluorophenyl)ethyl)-2-((3bS,4aR)-3-(difluoromethyl)-5,5-difluoro-3b,4,4a,5-tetrahydro-1H-cyclopropa[3,4]cyclopenta[1,2-c]pyrazol-1-yl)acetamide] | 8 | > 1000 |
| O=C(Cn1ccc(C2CC2)n1)N[C@@H](Cc1cc(F)cc(F)c1)c1nc2cc(-c3ccc(Cl)cc3Cl)ccc2c(=O)n1-c1ccc(S(=O)(=O)N2CCOCC2)cc1 [Example 81, (S)-2-(3-cyclopropyl-1H-pyrazol-1-yl)-N-(1-(7-(2,4-dichlorophenyl)-3-(4-(morpholinosulfonyl)phenyl)-4-oxo-3,4-dihydroquinazolin-2-yl)-2-(3,5-difluorophenyl)ethyl)acetamide] | 56 | > 1000 |
| COc1cccc(OC)c1-c1ccc2c(=O)n(-c3ccc(S(=O)(=O)N4CCOCC4)cc3)c([C@H](Cc3cc(F)cc(F)c3)NC(=O)Cn3nc(C(F)F)c4c3C(F)(F)[C@@H]3C[C@H]43)nc2c1 [Example 83, 2-((3bS,4aR)-3-(difluoromethyl)-5,5-difluoro-3b,4,4a,5-tetrahydro-1H-cyclopropa[3,4]cyclopenta[1,2-c]pyrazol-1-yl)-N-((S)-2-(3,5-difluorophenyl)-1-(7-(2,6-dimethoxyphenyl)-3-(4-(morpholinosulfonyl)phenyl)-4-oxo-3,4-dihydroquinazolin-2-yl)ethyl)acetamide] | 5 | > 1000 |
| Cc1cc(F)ccc1-c1ccc2c(=O)n(-c3ccc(S(=O)(=O)N4CCOCC4)cc3)c([C@H](Cc3cc(F)cc(F)c3)NC(=O)Cn3ccc(C4CC4)n3)nc2c1 [Example 102, (S)-2-(3-cyclopropyl-1H-pyrazol-1-yl)-N-(2-(3,5-difluorophenyl)-1-(7-(4-fluoro-2-methylphenyl)-3-(4-(morpholinosulfonyl)phenyl)-4-oxo-3,4-dihydroquinazolin-2-yl)ethyl)acetamide] | 48 | > 1000 |
| COc1ccc(-c2ccc3c(=O)n(-c4ccc(S(=O)(=O)N5CCOCC5)cc4)c([C@H](Cc4cc(F)cc(F)c4)NC(=O)Cn4nc(C(F)F)c5c4C(F)(F)[C@@H]4C[C@H]54)nc3c2)cn1 [Example 112, 2-((3bS,4aR)-3-(difluoromethyl)-5,5-difluoro-3b,4,4a,5-tetrahydro-1H-cyclopropa[3,4]cyclopenta[1,2-c]pyrazol-1-yl)-N-((S)-2-(3,5-difluorophenyl)-1-(7-(6-methoxypyridin-3-yl)-3-(4-(morpholinosulfonyl)phenyl)-4-oxo-3,4-dihydroquinazolin-2-yl)ethyl)acetamide] | 4 | > 1000 |
| O=C(Cn1ccc(C2CC2)n1)N[C@@H](Cc1cc(F)cc(F)c1)c1nc2cc(-c3c(Cl)cccc3Cl)ccc2c(=O)n1-c1ccc(S(=O)(=O)N2CCOCC2)cc1 [Example 114, (S)-2-(3-cyclopropyl-1H-pyrazol-1-yl)-N-(1-(7-(2,6-dichlorophenyl)-3-(4-(morpholinosulfonyl)phenyl)-4-oxo-3,4-dihydroquinazolin-2-yl)-2-(3,5-difluorophenyl)ethyl)acetamide] | 15 | > 1000 |
| Cc1cc(C(F)F)nn1CC(=O)N[C@@H](Cc1cc(F)cc(F)c1)c1nc2cc(-c3ccccc3F)ccc2c(=O)n1-c1ccc(Cl)c2c(NS(=O)(=O)C3CC3)nn(CC(F)F)c12 [Example 137, (S)-N-(1-(3-(4-chloro-3-(cyclopropanesulfonamido)-1-(2,2-difluoroethyl)-1H-indazol-7-yl)-7-(2-fluorophenyl)-4-oxo-3,4-dihydroquinazolin-2-yl)-2-(3,5-difluorophenyl)ethyl)-2-(3-(difluoromethyl)-5-methyl-1H-pyrazol-1-yl)acetamide] | 8.4 | > 1000 |
| O=C(Cc1ccn(C2CC2)n1)N[C@@H](Cc1cc(F)cc(F)c1)c1nc2cc(-c3ccccc3F)ccc2c(=O)n1-c1ccc(Cl)c2c(NS(=O)(=O)C3CC3)nn(CC(F)F)c12 [Example 139, (S)-N-(1-(3-(4-chloro-3-(cyclopropanesulfonamido)-1-(2,2-difluoroethyl)-1H-indazol-7-yl)-7-(2-fluorophenyl)-4-oxo-3,4-dihydroquinazolin-2-yl)-2-(3,5-difluorophenyl)ethyl)-2-(1-cyclopropyl-1H-pyrazol-3-yl)acetamide] | 0.57 | > 500 |
| CC(C)n1ccc(CC(=O)N[C@@H](Cc2cc(F)cc(F)c2)c2nc3cc(-c4ccccc4F)ccc3c(=O)n2-c2ccc(Cl)c3c(NS(=O)(=O)C4CC4)nn(CC(F)F)c23)n1 [Example 140, (S)-N-(1-(3-(4-chloro-3-(cyclopropanesulfonamido)-1-(2,2-difluoroethyl)-1H-indazol-7-yl)-7-(2-fluorophenyl)-4-oxo-3,4-dihydroquinazolin-2-yl)-2-(3,5-difluorophenyl)ethyl)-2-(1-isopropyl-1H-pyrazol-3-yl)acetamide] | 0.35 | > 500 |
| Cc1cc(C)nc(-c2ccc3c(=O)n(-c4ccc(Cl)c5c(NS(C)(=O)=O)nn(C)c45)c([C@H](Cc4cc(F)cc(F)c4)NC(=O)Cn4nc(C(F)(F)F)c5c4C(F)(F)[C@@H]4C[C@H]54)nc3c2)n1 [Example 141, N-((S)-1-(3-(4-chloro-1-methyl-3-(methylsulfonamido)-1H-indazol-7-yl)-7-(4,6-dimethylpyrimidin-2-yl)-4-oxo-3,4-dihydroquinazolin-2-yl)-2-(3,5-difluorophenyl)ethyl)-2-((3bS,4aR)-5,5-difluoro-3-(trifluoromethyl)-3b,4,4a,5-tetrahydro-1H-cyclopropa[3,4]cyclopenta[1,2-c]pyrazol-1-yl)acetamide] | 0.11 | > 500 |
| COc1ccccc1-c1ccc2c(=O)n(-c3ccc(S(=O)(=O)N4CCOCC4)cc3)c([C@H](Cc3cc(F)cc(F)c3)NC(=O)Cn3ccc(C4CC4)n3)nc2c1 [Example 142, (S)-2-(3-cyclopropyl-1H-pyrazol-1-yl)-N-(2-(3,5-difluorophenyl)-1-(7-(2-methoxyphenyl)-3-(4-(morpholinosulfonyl)phenyl)-4-oxo-3,4-dihydroquinazolin-2-yl)ethyl)acetamide] | 66 | > 1000 |

— patent US11505543B2, “4-oxo-3,4-dihydroquinazoline compounds as inhibitors of human immunodeficiency virus replication” (VIIV HEALTHCARE UK (NO.5) LIMITED, priority 2018, dated 2022)
